The test system of test [1] is C. albicans. Nature of the test: Inhibition of RIND IX reduction by C. albicans (yeast) in solution (Example 1, Table II). It counts as cell-based, Candida albicans (ATCC 14053). As to conditions: Method 2 (antibiotic preincubated with cells 37° C., 30 min), 635 nm.
Procedure: The following materials were used in this example: stock solutions of RIND IX compound dispersion prepared as described above, glucose (10% in water), trimethyl-1,4-benzoquinone ETA (1.5 mg/ml methanol), and the antibiotics (25 mg/ml in dimethyl sulfoxide, except that filipin was 12.5 mg/ml of solvent). Bacteria and yeast were grown as described above. The approximate final cell concentrations in the assay mixture were 4.2×10^8 cells/ml of E. coli, 7.1×10^8 cells/ml of S. aureus, and 7×10^5 of C. albicans.
Test solutions were prepared by adding in order: 1.2 ml of HEPES buffer, 50 μl glucose solution, 1.5 ml of RIND IX dispersion, 100 μl of antibiotic solution, 100 μl of cell suspension and 25 μl of ETA solution. Cell control solutions contained all reagents except antibiotics. Background controls consisted of both buffer and solution controls. The buffer control contained all reagents except antibiotics and cells. The solution control contained all reagents except cells. Optical density readings (OD) were measured at 635 nm at 0 minutes and after incubation at 37° C. for 30 minutes for test and Control solutions, and the change in density (ΔOD) was determined. […] The corrected percent inhibition is calculated by dividing the difference between the ΔOD obtained from the Control without antibiotic and the ΔOD of the test solution, by ΔOD of the Control without antibiotic. All readings were corrected by subtracting readings of the appropriate background control.
Solutions containing 2.9 ml HEPES, 50 μl of the antibiotic solution, and 100 μl cell solution were incubated at 37° C. for 30 minutes, centrifuged for 10 minutes and decanted. The resulting pellet was then treated with 1.4 ml HEPES, 50 μl glucose solution, 1.5 ml RIND IX dispersion and 25 μl ETA solution, mixed well and the optical densities recorded as described above in Method 1. The corrected percent inhibition data was calculated as described in Method 1 above.
The subject of test [2] is S. aureus. Nature of the test: Inhibition of MTT tetrazolium salt reduction by S. aureus, microtitration plate (Example 3, Table IV). As to conditions: Staphylococcus aureus, 0.5 h, S. aureus (gram +), 540 nm, 37° C., 30 min, read-out: Corrected Percent Inhibition. It counts as cell-based, Staphylococcus aureus (ATCC 25923). As for the experimental part: (§1) gram-negative microorganism Escherichia coli (ATCC 25922), gram-positive microorganism Staphylococcus aureus (ATCC 25923), and Candida albicans yeast cells (ATCC 14053), brain heart infusion broth (BHI) and Sabaroud's dextrose broth (SAB) from Difco Laboratories (Detroit, Michigan, U.S.A.), and Aspergillus flavus (ATCC 20047), a mold from American Type Culture Collection (Rockville, Maryland, U.S.A.).
(§2) E. coli and S. aureus were grown overnight in BHI broth at 37° C. C. albicans and A. flavus were grown overnight at 25° C. in SAB broth with agitation. The cells were harvested by centrifugation, washed and resuspended in 0.05 molar N-2-hydroxyethylpiperazine-N'-2-ethanesulfonic acid (HEPES) buffer (pH 7.8).
(§3) The differentiations of yeast and mold from bacteria were carried out in microtitration plates. The cell suspensions used were like those described in Example 2. The reducible compound used was 3-(4,5-dimethyl-2-thiazolyl)-2,5-diphenyl-2H-tetrazolium bromide (MTT). A composition containing MTT was prepared with the following components: 200 μl MTT solution (5 mg/ml methanol), 200 μl glucose solution (10% glucose in water), 200 μl trimethyl-1,4-benzoquinone ETA and 12 ml of HEPES buffer (0.05 molar, pH 7.8).
(§4) Test solutions were prepared using the following components: 50 μl HEPES buffer, 50 μl filipin polyene antibiotic (12.5 mg/ml dimethylsulfoxide)(serial dilutions of buffer and antibiotic solutions were performed to obtain various antibiotic concentrations), 50 μl of the appropriate cell suspension, i.e. E. coli (about 10^8 cells/ml), S. aureus (about 10^8 cells/ml), C. albicans (about 10^7 cells/ml) and A. flavus, and […] of the MTT composition noted above. Cell Controls contained all reagents except the antibiotic. Background was measured with buffer. Solution Controls contained all reagents except cells.
(§5) Optical density measurements were made at 540 nm using a commercially available spectrophotometer, and the change in optical density (ΔOD) was determined after 30 minutes at 37° C. […] It is apparent that the concentration effective for differentiation of yeast is different than for mold. However, it is well within the skill of a worker in the art to determine the appropriate concentration for a given test.
For orientation: Formazan colour is commonly taken as a measure of viable cells.

In test [3] the test system is S. aureus. Nature of the test: Inhibition of RIND XXXV reduction by S. aureus, microtitration plate, fluorescence (Example 2, Table III). It counts as cell-based, Staphylococcus aureus (ATCC 25923). As to conditions: Staphylococcus aureus, 0.5 h, S. aureus (gram +), 37° C., 30 min, read-out: Corrected Percent Inhibition. As for the experimental part: as §1, §2
(§6) Dispersions containing RIND compounds were prepared by dissolving, for example, RIND VII from Table I above in N,N-dimethylformamide (DMF) at 16 mg compound per ml of solvent. An aliquot (250 μl) of the resulting solution was added to 500 μl of TRITON X-100 surfactant. This mixture was then added dropwise with stirring to 25 ml of 0.05 molar HEPES buffer. A solution containing a water-compatible RIND compound (for example, RIND XXXV) was prepared by dissolving the compound in N,N-dimethylformamide which had been acidified with 0.1% sulfuric acid (16 mg RIND compound per ml of solvent).
(§7) A composition was prepared from the following components: 100 μl RIND XXXV solution (16 mg RIND compound per ml of acidified N,N-dimethylformamide), 200 μl glucose solution (10% in water), 200 μl trimethyl-1,4-benzoquinone ETA solution (1.5 mg/ml methanol) and 10 ml HEPES buffer.
(§8) Test solutions were prepared using the following reagents: 50 μl HEPES buffer, 50 μl filipin polyene antibiotic (12.5 mg/ml dimethylsulfoxide)(serial dilutions of buffer and antibiotic solutions were performed to obtain various antibiotic concentrations), 50 μl of the appropriate cell suspensions, that is, E. coli (about 10^8 cells/ml), S. aureus (about 10^8 cells/ml), C. albicans (about 10^7 cells/ml) and A. flavus, and […] of the RIND composition described above.
(§9) Control solutions were prepared as described in Example 1. Relative fluorescence was measured using a Dynatech MICROFLUOR Reader (Dynatech Laboratories, Alexandria, Virginia) modified to read at excitation 540 nm and emission 620 nm, at zero time and after incubation at 37° C. for 30 minutes. The change in relative fluorescence was then determined as the difference of the two values.

In test [4] the test system is C. albicans. Nature of the test: Inhibition of MTT tetrazolium salt reduction by C. albicans, microtitration plate (Example 3, Table IV). It counts as cell-based, Candida albicans (ATCC 14053). To be noted: Candida albicans, 0.5 h, C. albicans (yeast), 540 nm, 37° C., 30 min, read-out: Corrected Percent Inhibition. As for the experimental part:
as §1, §2, §3, §4, §5

The subject of test [5] is E. coli. Description: Inhibition of RIND XXXV reduction by E. coli, microtitration plate, fluorescence (Example 2, Table III). It counts as cell-based, Escherichia coli (ATCC 25922). As to conditions: Escherichia coli, 0.5 h, E. coli (gram -), 37° C., 30 min, read-out: Corrected Percent Inhibition. As for the experimental part:
as §1, §2, §6, §7, §8, §9

In general, inhibition refers to the share of the control response that was lost under treatment. `CCCCC[C@@H](O)[C@H]1C(=O)O[C@H](C)[C@@H](O)/C=C/C=C/C=C/C=C/C=C(\C)[C@@H](O)C[C@H](O)C[C@H](O)C[C@H](O)C[C@H](O)C[C@H](O)C[C@@H]1O` [Filipin, filipin]: in test [1], the “Corrected % Inhibition” value turned out to be 97.5%. Also, the inhibition at 260 µg/mL in test [2] (0.26 mg/ml) worked out at 0%; in test [3] (0.26 mg/ml) it was 7.5%; in test [4] (0.26 mg/ml) it was 10.3%; in test [5] (0.26 mg/ml) it was 0%. In addition, the inhibition at 520 µg/mL in test [2] (0.52 mg/ml) was found to be 0%; in test [3] (0.52 mg/ml), 8.6%; in test [4] (0.52 mg/ml) it was 50%; in test [5] (0.52 mg/ml), 0%. Further, the inhibition at 1040 µg/mL amounted to 0% in test [2] (1.04 mg/ml), 14.8% in test [3] (1.04 mg/ml), 60.3% in test [4] (1.04 mg/ml) and 2% in test [5] (1.04 mg/ml). Besides, the inhibition at 2080 µg/mL in test [2] (2.08 mg/ml) is 0%; in test [3] (2.08 mg/ml) it was 18.2%; in test [4] (2.08 mg/ml) it was 100%; in test [5] (2.08 mg/ml), 17.6%.

Source of the values: patent US4888287A, “Rapid differentiation of fungi from bacteria using polyene antibiotics” (Eastman Kodak Company, priority 1986, dated 1989).
